Source: patent US20040029928A1, “Novel propenohydroxamic acid derivatives” (priority 2000, published 2004)

Assays:
[1] = biological target: T1, TACE (crude extracted protein from membrane fraction of THP-1 cells) (Homo sapiens, UniProt P78536); assay: In vitro TACE inhibitory activity (fluorogenic peptide substrate); type: biochemical; details: crude TACE 10 μg/mL, substrate 20 μM, room temperature, at least 4 hours
T1 construct: The supernatant was collected, which was provided for use as a TACE crude extract; endogenous in cells; host or cells: THP-1 cells stimulated with LPS, silica and hydroxyurea; membrane fraction solubilised with 1% Triton X-100
Experimental: Test 1 (In Vitro TACE Inhibitory Activity)
(1) Crude Extraction of TACE from THP-1 Cell Membrane
To THP-1 cells (cell density: 2×10^6/mL) suspended in RPMI 1640 medium containing 1% FBS were added LPS (E. coli 055:B55, final concentration: 1 pg/mL), silica (0.014 μm, final concentration: 50 μg/mL) and hydroxyurea (final concenration: 2 mM), followed by cultivation at 37° C. for 16 hours under 5%-CO2 conditions. The resulting cells were then washed once with RPMI 1640 medium free of FBS. The cells were suspended in 3 times the pellet volume of Solution A (10 mM sodium phosphate (pH 7.4), 1 mM MgCl2, 30 mM NaCl, 0.02% NaN3, 5 μM PMSF (phenyl methyl sulfonyl fluoride)). The cells were ground by a Polytron homogenizer (5 sec×5 times, ice cooling for 1 to 2 minutes each time). The homogenate solution was stacked over 41% sucrose-Solution A, followed by centrifugation (150,000 g×1 hour). After centrifugation, the intermediate layer was collected and diluted with 4 volumes of Solution A, followed by centrifugation (150,000 g×20 min). A sufficient amount of a solubilizing solution (1%-Triton X-100-A solution) was added (protein concentration: 1 mg/mL) and the mixture was stirred (4° C.×1 hour). Stirring was followed by centrifugation (100,000 g×30 min, 4° C.). The supernatant was collected, which was provided for use as a TACE crude extract.
(2) Measurement of TACE Inhibitory Activity
TACE (crude extracted protein from membrane fraction of THP-1 cells, final concentration: 10 μg/mL), each of test compounds (DMSO final concentration: 1%) shown in Table 1 and an incubate solution (50 mM Tris-HCl (pH 7.4), 5 mM CaCl2, 0.002% NaN3, 0.002% Brij 35) was added to a 96-well black plate. After pre-incubation at room temperature for 30 minutes, a substrate (N-methylanthranilyl-LAQAVRSK(DNP)rr-NH2: product of PEPTIDE INSTITUTE, INC., final concentration: 20 μM) was added, followed by incubation at room temperature for at least 4 hours. The fluorescence intensity was measured using POLAR STAR (Ex: 340 nm, Em: 430 nm) and from it, TACE inhibitory activity (IC50 value) was calculated.

MMP-1 = biological target: T2, MMP-1 (Homo sapiens, UniProt P03956); assay: Measurement of MMP-1 inhibitory activity; type: biochemical; details: MMP-1 (Cosmo Bio), fluorogenic substrate
T2 construct: purchased Cosmo Bio Co
T2 sequence (P03956 100-469): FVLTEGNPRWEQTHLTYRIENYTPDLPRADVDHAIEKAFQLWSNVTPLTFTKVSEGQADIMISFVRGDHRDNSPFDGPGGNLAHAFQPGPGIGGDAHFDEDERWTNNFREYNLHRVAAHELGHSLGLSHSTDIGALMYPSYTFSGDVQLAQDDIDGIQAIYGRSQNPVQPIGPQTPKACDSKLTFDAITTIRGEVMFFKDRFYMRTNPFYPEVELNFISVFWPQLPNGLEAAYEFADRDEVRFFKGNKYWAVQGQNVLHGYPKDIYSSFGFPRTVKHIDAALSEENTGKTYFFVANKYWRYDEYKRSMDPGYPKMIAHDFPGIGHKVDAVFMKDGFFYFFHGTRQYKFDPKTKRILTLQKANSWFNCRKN
Experimental: Test 2 (Measurement of MMP-1 Inhibitory Activity)
MMP-1 inhibitory activity (IC50 value) was measured in accordance with the above-described measuring method of TACE inhibitory activity by using MMP-1 (product of Cosmo Bio Co.) and, as a substrate, 7-methoxycoumarin-4-yl-acetyl-PLGL-[N^3-(2,4-dinitrophenyl)2,3-diaminopropionyl]-AR—NH2 (product of Peptide Institute Inc.). The fluorescence intensity was measured using POLAR STAR (Ex: 340 nm, Em: 405 nm).

T1 sequence (P78536 215-824): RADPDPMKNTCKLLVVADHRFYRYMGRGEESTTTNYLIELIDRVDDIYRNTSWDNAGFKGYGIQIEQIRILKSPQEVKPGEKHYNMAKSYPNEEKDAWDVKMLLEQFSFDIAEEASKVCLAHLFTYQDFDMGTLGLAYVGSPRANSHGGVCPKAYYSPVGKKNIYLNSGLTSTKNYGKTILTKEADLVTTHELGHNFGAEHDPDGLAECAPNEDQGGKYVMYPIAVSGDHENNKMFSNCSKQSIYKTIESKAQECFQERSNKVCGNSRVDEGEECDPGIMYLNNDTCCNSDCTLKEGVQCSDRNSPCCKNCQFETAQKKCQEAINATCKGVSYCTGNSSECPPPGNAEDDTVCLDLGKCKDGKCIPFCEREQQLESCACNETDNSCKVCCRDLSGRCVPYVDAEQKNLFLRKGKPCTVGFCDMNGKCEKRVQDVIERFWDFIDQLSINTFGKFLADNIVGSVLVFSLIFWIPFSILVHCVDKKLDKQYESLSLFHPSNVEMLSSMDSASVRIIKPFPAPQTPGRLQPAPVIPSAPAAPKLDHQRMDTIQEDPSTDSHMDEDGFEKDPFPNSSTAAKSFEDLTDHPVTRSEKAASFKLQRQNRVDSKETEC

Row | SMILES | melting point [°C] | IC50 [1] [nM] | IC50 (MMP-1) [µM]
1 | COc1ccc(NC(=S)Nc2cccc(/C(=C\C(=O)NO)c3ccccc3)c2)cc1 [Compound 58, Z-3-[3-[3-(4-Methoxyphenyl)thioureido]phenyl]-3-phenylpropenohydroxamic Acid] | 176 to 179 |  | 
2 | COc1ccc(S(=O)(=O)Nc2ccc(/C(=C\C(=O)NO)c3ccccc3)cc2)cc1 [Compound 54, Z-3-[4-(4-Methoxybenzenesulfonylamino)phenyl]-3-phenylpropenohydroxamic Acid] | 188 to 191 |  | 
3 | COc1ccc(S(=O)(=O)N(C)c2cccc(/C(=C\C(=O)NO)c3ccc[n+]([O-])c3)c2)cc1 [Compound 94, E-3-[3-[N-(4-Methoxybenzenesulfonyl)-N-methylamino]phenyl]-3-(3-pyridyl N-oxide)propenohydroxamic Acid] |  | 13 | > 10
4 | O=C(/C=C(/c1ccccc1)c1cccc(NS(=O)(=O)c2cccc3ccccc23)c1)NO [Compound 27, Z-3-[3-(1-Naphthalenesulfonylamino)phenyl]-3-phenylpropenohydroxamic Acid] | 160 to 163 |  | 
5 | COc1ccc(NC(=O)Nc2cccc(/C(=C\C(=O)NO)c3ccccc3)c2)cc1 [Compound 57, Z-3-[3-[3-(4-Methoxyphenyl)ureido]phenyl]-3-phenylpropenohydroxamic Acid] | 190 to 192 |  | 
6 | O=C(/C=C(/c1ccccc1)c1cccc(N(CCc2ccccc2)S(=O)(=O)c2ccc3ccccc3c2)c1)NO [Compound 66, Z-3-[3-[N-(2-Naphthalenesulfonyl)-N-(2-phenylethyl)amino]phenyl]-3-phenylpropenohydroxamic Acid] | 127 to 129 |  | 
7 | COc1ccc(OC)c(S(=O)(=O)N(C)c2cccc(/C(=C\C(=O)NO)c3ccccc3)c2)c1 [Compound 76, Z-3-[3-[N-(2,5-Dimethoxybenzenesulfonyl)-N-methylamino]phenyl]-3-phenylpropenohydroxamic acid] | 151 to 153 |  | 
8 | COc1ccc(C(=O)Nc2cccc(C(=CC(=O)NO)c3cccc(NC(=O)c4ccc(OC)cc4)c3)c2)cc1 [Compound 39, 3,3-bis[3-(4-Methoxybenzoylamino)phenyl]propenohydroxamic Acid] | 198 to 200 |  | 
9 | COc1ccc(S(=O)(=O)Nc2cccc(C(=CC(=O)NO)c3cccc(NS(=O)(=O)c4ccc(OC)c(OC)c4)c3)c2)cc1OC [Compound 44, 3,3-bis[3-(3,4-Dimethoxybenzenesulfonylamino)phenyl]propenohydroxamic Acid] | 132 to 135 |  | 
10 | CN(C)c1cccc2c(S(=O)(=O)Nc3cccc(/C(=C\C(=O)NO)c4ccccc4)c3)cccc12 [Compound 30, Z-3-[3-[5-(Dimethylamino)-1-naphthalenesulfonylamino)phenyl]-3-phenylpropenohydroxamic Acid] | 123 to 125 |  | 
11 | O=C(/C=C(/c1ccccc1)c1cccc(N(Cc2cccnc2)S(=O)(=O)c2ccc3ccccc3c2)c1)NO [Compound 67, Z-3-[3-[N-(2-Naphthalenesulfonyl)-N-(3-pyridylmethyl)amino]phenyl]-3-phenylpropenohydroxamic Acid] | 168 to 170 |  | 
12 | O=C(/C=C(/c1ccccc1)c1ccc(NS(=O)(=O)c2ccc([N+](=O)[O-])cc2)cc1)NO [Compound 35, Z-3-[4-(4-Nitrobenzenesulfonylamino)phenyl]-3-phenylpropenohydroxamic Acid] | 146 to 148 |  | 
13 | O=C(C=C(c1cccc(NS(=O)(=O)c2ccc3ccccc3c2)c1)c1cccc(NS(=O)(=O)c2ccc3ccccc3c2)c1)NO [Compound 45, 3,3-bis[3-(2-Naphthalenesulfonylamino)phenyl]propenohydroxamic Acid] | 128 to 131 |  | 
14 | CN(C)c1cccc2c(S(=O)(=O)N(C)c3cccc(/C(=C\C(=O)NO)c4ccccc4)c3)cccc12 [Compound 74, Z-3-[3-[N-(5-(Dimethylamino)-1-naphthalenesulfonyl)-N-methylamino]phenyl]-3-phenylpropenohydroxamic acid] | 96 to 99 |  | 
15 | CN(c1cccc(/C(=C\C(=O)NO)c2ccccc2)c1)S(=O)(=O)c1cccc2cccnc12 [Compound 73, Z-3-[3-[N-(8-Quinolinesulfonyl)-N-methylamino]phenyl]-3-phenylpropenohydroxamic Acid] |  | 29 | > 10
16 | O=C(C=C(c1cccc(NS(=O)(=O)c2cccc3cccnc23)c1)c1cccc(NS(=O)(=O)c2cccc3cccnc23)c1)NO [Compound 46, 3,3-bis[3-(8-Quinolinesulfonylamino)phenyl]propenohydroxamic Acid] | 152 to 156 |  | 
17 | O=C(NO)C(F)=C(c1cccc(NS(=O)(=O)c2cccc3cccnc23)c1)c1cccc(NS(=O)(=O)c2cccc3cccnc23)c1 [Compound 49, 2-Fluoro-3,3-bis[3-(8-quinolinesulfonylamino)phenyl]propenohydroxamic Acid] | 150 to 153 |  | 
18 | COc1ccc(S(=O)(=O)N(C)c2cccc(/C(=C\C(=O)NO)c3ccccc3)c2)cc1 [Compound 62, Z-3-[3-[N-(4-Methoxybenzenesulfonyl)-N-methylamino]phenyl]-3-phenylpropenohydroxamic Acid] |  | 8.6 | > 10
19 | O=C(/C=C(/c1ccccc1)c1cc(NS(=O)(=O)c2ccc3ccccc3c2)ccc1Cl)NO [Compound 36, Z-3-[2-Chloro-5-(2-naphthalenesulfonylamino)phenyl]-3-phenylpropenohydroxamic Acid] | 173 to 175 |  | 
20 | COc1ccc(S(=O)(=O)Nc2ccc(Cl)c(/C(=C\C(=O)NO)c3ccccc3)c2)cc1OC [Compound 37, Z-3-[2-Chloro-5-(3,4-dimethoxybenzenesulfonylamino)phenyl]-3-phenylpropenohydroxamic Acid] | 127 to 130 |  | 
21 | COc1ccc(S(=O)(=O)N(c2cccc(/C(=C/C(=O)NO)c3cccnc3)c2)C(C)C)cc1 [Compound 114, Z-3-[3-[N-(4-Methoxybenzenesulfonyl)-N-isopropylamino]phenyl]-3-(3-pyridyl)propenohydroxamic acid] | 195 to 197 |  | 
22 | COc1ccc(C(=O)Nc2cccc(/C(=C\C(=O)NO)c3ccccc3)c2)cc1 [Compound 53, Z-3-[3-(4-Methoxybenzoylamino)phenyl]-3-phenylpropenohydroxamic Acid] | 134 to 137 |  | 
23 | O=C(/C=C(/c1ccccc1)c1cccc(NS(=O)(=O)N2CCCCC2)c1)NO [Compound 26, Z-3-[3-(1-Piperidinesulfonylamino)phenyl]-3-phenylpropenohydroxamic Acid] | 158 to 159 |  | 
24 | CCCN(c1cccc(/C(=C\C(=O)NO)c2cccnc2)c1)S(=O)(=O)c1ccc(OC)cc1 [Compound 115, E-3-[3-[N-(4-Methoxybenzenesulfonyl)-N-propylamino]phenyl]-3-(3-pyridyl)propenohydroxamic Acid] | 151 to 153 |  | 
25 | O=C(C=C(c1cccc(NS(=O)(=O)c2ccc(Br)cc2)c1)c1cccc(NS(=O)(=O)c2ccc(Br)cc2)c1)NO [Compound 40, 3,3-bis [3-(4-Bromobenzenesulfonylamino)phenyl]propenohydroxamic Acid] | 137 to 141 |  | 
26 | O=C(/C=C(/c1ccccc1)c1cccc(N(Cc2ccccc2)S(=O)(=O)c2ccc3ccccc3c2)c1)NO [Compound 65, Z-3-[3-[N-(2-Naphthalenesulfonyl)-N-benzylamino]phenyl]-3-phenylpropenohydroxamic Acid] | 88 to 90 |  | 
